Measurements from patent publication US20100292185A1, “BETA-LACTAMASE INHIBITORS” (priority 2009, published 2010).
Structures can show the parent of a compound that is named as a salt. Where two headings read alike, the source gives them in different places.

Tests used:
SHV-5 β-lactamase = molecular target: T1, SHV-5 β-lactamase (Klebsiella pneumoniae, UniProt P0A3M1); assay: β-lactamase enzyme inhibition assay (nitrocefin substrate), SHV-5; assay type: biochemical
T1 construct: expressed as native untagged proteins; made in house; host or cells: E. coli BL21(DE3)
In short: (§1)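 Native untagged enzymes were expressed in E. coli BL21(DE3) and purified by cation exchange and gel filtration. Compounds (100–0.005 μM in PBS pH 7.0) were preincubated with enzyme for 10 min at 37 °C, then 100 μM nitrocefin (final) was added. IC50 was derived from the maximum hydrolysis rate at 486 nm, read kinetically for 10 min, relative to uninhibited controls.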

CTX-M15 β-lactamase = molecular target: T2, CTX-M15 β-lactamase (Escherichia coli, UniProt Q9EXV5); assay: β-lactamase enzyme inhibition assay (nitrocefin substrate), CTXM-15; assay type: biochemical
T2 construct: expressed as native untagged proteins; made in house; host or cells: E. coli BL21(DE3)
In short: as §1

p99 AmpC β-lactamase = molecular target: T3, p99 AmpC β-lactamase (Enterobacter cloacae, UniProt P05364); assay: β-lactamase enzyme inhibition assay (nitrocefin substrate), P99 AmpC; assay type: biochemical
T3 construct: expressed as native untagged proteins; made in house; host or cells: E. coli BL21(DE3)
In short: as §1

KPC-2 β-lactamase = molecular target: T4, KPC-2 β-lactamase (Klebsiella pneumoniae, UniProt Q9F663); assay: β-lactamase enzyme inhibition assay (nitrocefin substrate), KPC-2; assay type: biochemical
T4 construct: expressed as native untagged proteins; made in house; host or cells: E. coli BL21(DE3)
In short: as §1

[1] = molecular target: T5, VIM-2 metallo β-lactamase (Pseudomonas aeruginosa, UniProt Q9K2N0); assay: β-lactamase enzyme inhibition assay (nitrocefin substrate), VIM-2; assay type: biochemical; details: nitrocefin 100 μM, 37° C., PBS pH 7.0; read-out: VIM-2 IC50
T5 construct: made in house
Experimental: Isolation of β-lactamases. For SHV-5, p99 AmpC, KPC-2 and CTX-M15 β-lactamases, E. coli BL21(DE3) bacterial cells carrying expression plasmids (expressed as native untagged proteins) for the individual β-lactamases were grown in 1 L of Superbroth (Teknova Inc. Hollister, Calif.) supplemented with 100 μg/ml kanamycin and 1×5052 (0.5% glycerol, 0.05% glucose and 0.2% α-lactose) at 35° C. for 18-20 hours. Cells were harvested by centrifugation (4,000×g, 4° C., 20 min), and resuspended in 50 ml of 10 mM HEPES pH 7.5 (1/20 of the initial volume). The cells were lysed by sonication (5 pulses of 45 seconds) at 45 W on ice. The lysates were clarified by centrifugation at 10,000×g for 40 minutes at 4° C. Samples were diluted 5-fold in 50 mM sodium acetate pH 5.0, stored overnight at 4° C., after which they were centrifuged at 10,000×g for 30 minutes to clarify, and filtered through 0.45 μm filters. The samples were loaded onto a 5 ml Capto S sepharose cation exchange column (GE Healthcare) pre-equilibrated with 50 mM sodium acetate pH 5.0. The column was washed with 5 column volumes of 50 mM sodium acetate pH 5.0 to wash out unbound protein and a linear gradient of NaCl (0 to 500 mM) was used to elute the protein (over 16 CV) from the column. Fractions were assayed for β-lactamase activity using Centa (Calbiochem, Gibbstown, N.J.) as a reporter β-lactamase substrate for activity in the isolated fractions. Active fractions were pooled, concentrated and further purified by gel filtration chromatography on a Superdex 75 prep grade gel filtration column (GE Healthcare, Piscataway, N.J.) pre-equilibrated in 50 mM Hepes pH 7.5, 150 mM NaCl. Active fractions were pooled concentrated, quantitated by BCA protein determination (Thermo Scientific, Rockford, Ill.), and frozen at −80° C. in 20% glycerol until use.
For VIM-2 metallo (β-lactamase, the procedure was identical with the following exceptions: 1) the protein was not pH adjusted to pH 5 with 50 mM sodium acetate, 2) the chromatography step was changed to a 5 ml Q sepharose anion exchange column pre-equilibrated with 50 mM Hepes pH 7.5, and 3) elution of the protein was achieved by a linear gradient of NaCl (0-600 mM). Finally, the VIM-2 purification required a second run (3rd step) on the Q sepharose anion exchange column to achieve acceptable purity (>90%).
(§2) β-lactamase Inhibition. To determine the level of inhibition of β-lactamase enzymes, compounds were diluted in PBS at pH 7.0 to yield concentrations between 100 and 0.005 μM in microtiter plates. An equal volume of diluted enzyme stock was added, and the plates were incubated at 37° C. for 10 min. Nitrocefin solution was then dispensed as substrate into each well at a final concentration of 100 μM, and the plates were immediately read with the kinetic program at 486 nm for 10 min on the SPECTRAMAX® Plus^384 (high-throughput microplate spectrophotometer; Molecular Devices Corp., Sunnyvale, Calif.). Maximum rates of metabolism were then compared to those in control wells (without inhibitors), and percentages of enzyme inhibition were calculated for each concentration of inhibitor. The concentration of inhibitor needed to reduce the initial rate of hydrolysis of substrate by 50% (IC50) was calculated as the residual activity of β-lactamase at 486 nm using the SoftMax Pro 5.0 software (Molecular Devices Corp.).
Using the methodology described above, examples of the current invention were evaluated for their ability to inhibit β-lactamase enzymes. The results of these assays are summarized in Table 2 for representative enzymes across different subtypes (note SHV-5 and CTXM-15 exemplify different subclasses of Ambler Class A Extended Spectrum Beta Lactamases, KPC-2 exemplifies Class A carbapenemases, P99 represents chromosomal Class C AmpC, VIM-2 exemplifies subclass B1 of metallo-β-lactamases, and OXA-23 represents chromosome-encoded Class D oxacillin-hydrolyzing β-lactamases), NT=not tested.

OXA-23 β-lactamase = molecular target: T6, OXA-23 β-lactamase (Acinetobacter baumannii, UniProt Q9L4P2); assay: β-lactamase enzyme inhibition assay (nitrocefin substrate), OXA-23 crude extract; assay type: biochemical; details: nitrocefin 100 μM, 37° C., PBS pH 7.0; read-out: OXA-23 IC50
T6 construct: crude β-lactamase extracts were prepared from 20 ml overnight cultures; endogenous in cells; host or cells: Acinetobacter baumannii cells containing OXA-23 (crude freeze-thaw extract)
Experimental: For OXA-23 β-lactamase, crude β-lactamase extracts were prepared from 20 ml overnight cultures with shaking. Acenitobacter baumanni cells containing OXA-23 were further diluted 10-fold and grown to mid-log phase (OD at 600 nm, 0.5-0.8) in Mueller-Hinton II (MH-II) broth at 37° C. The cells were pelleted at 5000 g, washed and resuspended in 2 mL PBS pH 7.0. The β-lactamases were extracted by four cycles of freezing and thawing followed by centrifugation. β-lactamase activity in the extracts was measured with the chromogenic cephalosporin nitrocefin. The amount of protein in each β-lactamase preparation was determined by the bicinchoninic acid (BCA) assay.
as §2

[2] = test system: E. coli expressing the Class A ESBL SHV-5; assay: In vitro antibacterial assay of β-lactamase inhibition (broth microdilution MIC), E. coli SHV-5; assay type: cell-based
In short: (§3)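 MIC read by eye after 16-20 h at 37° C. Compounds were titrated 2-fold from 8 μg/mL down to 0.015 μg/mL (final) in CAMHB with a β-lactam antibiotic, and wells were inoculated per CLSI with strains grown 3-5 h under 50 μg/mL ampicillin.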

[3] = test system: K. pneumoniae expressing the Class A Extended Spectrum Beta-Lactamase (ESBL) CTX-M-15; assay: In vitro antibacterial assay of β-lactamase inhibition (broth microdilution MIC), K. pneumoniae CTX-M-15; assay type: cell-based
In short: as §3

[4] = test system: E. cloacae expressing the Class C P99+; assay: In vitro antibacterial assay of β-lactamase inhibition (broth microdilution MIC), E. cloacae P99+; assay type: cell-based
In short: as §3

[5] = test system: K. pneumoniae expressing the Class A carbapenemase KPC-2; assay: microbe, parasite or virus in culture; assay type: cell-based
In short: as §3

[6] = in presence of Ceftazidime 8 μg/ml (Examples 1-56)
[7] = nitrocefin 100 μM, 37° C., PBS pH 7.0, read-out: P99 AmpC IC50
[8] = in presence of Piperacillin 16 μg/ml (Examples 57-65)

T1 sequence (P0A3M1 22-286): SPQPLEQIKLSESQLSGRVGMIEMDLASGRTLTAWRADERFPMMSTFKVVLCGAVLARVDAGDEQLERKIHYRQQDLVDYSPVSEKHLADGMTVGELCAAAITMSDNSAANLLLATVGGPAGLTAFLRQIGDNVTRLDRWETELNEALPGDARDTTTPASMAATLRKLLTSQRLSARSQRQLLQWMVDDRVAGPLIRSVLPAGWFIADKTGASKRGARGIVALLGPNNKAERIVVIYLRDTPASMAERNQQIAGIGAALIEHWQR
T4 sequence (Q9F663 25-293 limits assumed): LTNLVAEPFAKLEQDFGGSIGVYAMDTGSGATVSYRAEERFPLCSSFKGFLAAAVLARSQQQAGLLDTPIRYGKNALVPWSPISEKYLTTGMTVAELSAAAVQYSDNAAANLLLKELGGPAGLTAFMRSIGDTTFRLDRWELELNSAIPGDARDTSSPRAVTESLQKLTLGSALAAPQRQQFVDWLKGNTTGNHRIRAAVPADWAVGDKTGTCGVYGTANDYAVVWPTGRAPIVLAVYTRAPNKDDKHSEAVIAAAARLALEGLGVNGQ
T3 sequence (P05364 21-381): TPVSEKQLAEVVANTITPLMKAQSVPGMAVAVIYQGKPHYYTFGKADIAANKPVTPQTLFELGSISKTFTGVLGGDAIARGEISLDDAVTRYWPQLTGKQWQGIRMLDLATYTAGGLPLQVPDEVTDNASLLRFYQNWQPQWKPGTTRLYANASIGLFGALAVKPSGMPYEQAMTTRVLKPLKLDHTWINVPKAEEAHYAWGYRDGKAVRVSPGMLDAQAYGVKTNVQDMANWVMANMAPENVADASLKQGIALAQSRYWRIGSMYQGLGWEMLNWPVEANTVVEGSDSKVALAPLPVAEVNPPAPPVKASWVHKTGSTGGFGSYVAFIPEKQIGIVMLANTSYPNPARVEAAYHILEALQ
T6 sequence (Q9L4P2 18-273): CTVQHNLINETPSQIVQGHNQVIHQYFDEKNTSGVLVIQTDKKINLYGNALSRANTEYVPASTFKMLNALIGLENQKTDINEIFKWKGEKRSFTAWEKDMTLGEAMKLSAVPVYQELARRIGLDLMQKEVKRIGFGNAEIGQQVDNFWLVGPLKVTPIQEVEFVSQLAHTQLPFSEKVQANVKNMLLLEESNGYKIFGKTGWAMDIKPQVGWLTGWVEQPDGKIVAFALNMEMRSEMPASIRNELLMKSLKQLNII
T2 sequence (Q9EXV5 entry or part of it): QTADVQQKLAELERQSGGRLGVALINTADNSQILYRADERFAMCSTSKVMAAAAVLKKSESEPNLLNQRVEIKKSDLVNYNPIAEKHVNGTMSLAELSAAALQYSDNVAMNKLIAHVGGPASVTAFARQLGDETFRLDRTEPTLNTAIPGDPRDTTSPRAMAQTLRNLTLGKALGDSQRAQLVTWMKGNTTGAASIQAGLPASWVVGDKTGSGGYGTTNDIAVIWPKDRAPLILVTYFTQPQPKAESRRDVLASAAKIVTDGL

| Compound | IC50 (SHV-5 β-lactamase) | IC50 (CTX-M15 β-lactamase) | IC50 (p99 AmpC β-lactamase) | IC50 (KPC-2 β-lactamase) | IC50 [1] | IC50 (OXA-23 β-lactamase) | MIC of example compound, E. coli SHV-5 [2, 6] | MIC of example compound, K. pneumoniae CTX-M-15 [3, 6] | MIC of example compound, E. cloacae P99+ [4, 6] | MIC of example compound, K. pneumoniae KPC-2 [5, 6] | IC50 (p99 AmpC β-lactamase; [7]) | MIC of example compound, E. coli SHV-5 [2, 8] | MIC of example compound, K. pneumoniae CTX-M-15 [3, 8] | MIC of example compound, E. cloacae P99+ [4, 8] | MIC of example compound, K. pneumoniae KPC-2 [5, 8] |
| --- | --- | --- | --- | --- | --- | --- | --- | --- | --- | --- | --- | --- | --- | --- | --- |
| O=C(N[C@@H](Cc1cccc(C(=O)O)c1O)B(O)O)c1ccc(CN2CCNCC2)cc1 [Example 5, 2(R)-3-[2-(4-(1-piperazinylmethyl)benzoylamino)-2-borono-ethyl]-2-hydroxy-benzoic acid Hydrochloride] | > 1000 nM | 6 nM | 1 nM | 1 nM | 510 nM | > 1000 nM | 4 µg/mL | 1 µg/mL | 2 µg/mL | 0.03 µg/mL | – | – | – | – | – |
| CCNCc1ccc(C(=O)N[C@@H](Cc2cccc(C(=O)O)c2O)B(O)O)cc1.Cl [Example 6, 2(R)-3-[2-(4-(N-ethylaminomethyl)benzoylamino)-2-borono-ethyl]-2-hydroxy-benzoic acid Hydrochloride] | > 1000 nM | 4 nM | – | 4 nM | 57 nM | > 1000 nM | 4 µg/mL | 1 µg/mL | 0.25 µg/mL | 0.03 µg/mL | 1 nM | – | – | – | – |
| Cl.Nc1ccc(C(=O)N[C@@H](Cc2cccc(C(=O)O)c2O)B(O)O)cn1 [Example 7, (2R)-3-{2-[(2-Amino-pyridine-5-carbonyl)-amino]-2-borono-ethyl}-2-hydroxy-benzoic acid formate salt] | 320 nM | 1 nM | – | 4 nM | 820 nM | 508 nM | 1 µg/mL | 0.12 µg/mL | 0.12 µg/mL | 0.03 µg/mL | 1 nM | – | – | – | – |
| Cl.Nc1cc(C(=O)N[C@@H](Cc2cccc(C(=O)O)c2O)B(O)O)ccn1 [Example 8, (2R)-3-{2-[(2-Amino-pyridine-4-carbonyl)-amino]-2-borono-ethyl}-2-hydroxy-benzoic acid] | 29 nM | 28 nM | – | 5 nM | 700 nM | 144 nM | 1 µg/mL | 0.5 µg/mL | 0.5 µg/mL | 0.06 µg/mL | 2 nM | – | – | – | – |
| O=C(Cc1ccc(CN2CCCC2)cc1)N[C@@H](Cc1cccc(C(=O)O)c1O)B(O)O [Example 38, (1R)-[2-(4-pyrrolin-1-ylmethyl-phenyl)-acetylamino]-(3-carboxy-2-hydroxy)benzyl-methylboronic acid formate] | 5 nM | 3 nM | – | 6 nM | 858 nM | 234 nM | 0.5 µg/mL | 0.25 µg/mL | 0.5 µg/mL | 0.03 µg/mL | 9 nM | – | – | – | – |
| O=C(Cc1ccc(C[n+]2ccccc2)cc1)N[C@@H](Cc1cccc(C(=O)O)c1O)B(O)O [Example 42, formate] | 2 nM | 4 nM | 4 nM | 10 nM | > 1000 nM | 153 nM | – | – | – | – | – | – | – | – | – |
| NCc1ccc(/C(=N/O)C(=O)N[C@@H](Cc2cccc(C(=O)O)c2O)B(O)O)cc1 [Example 53, 3-{2(R)-[2-(4-aminomethyl-phenyl)-2-hydroxyimino-acetylamino]-2-borono-ethyl}-2-hydroxy-benzoic acid hydrochloride] | 29 nM | 12 nM | – | 39 nM | 312 nM | 350 nM | – | – | – | – | – | – | – | – | – |
| Cl.NCc1cc(CC(=O)N[C@@H](Cc2cccc(C(=O)O)c2O)B(O)O)ccn1 [Example 63, (2R)-3-{2-[(2-Aminomethyl-pyridin-4-yl-acetyl)-amino]-2-borono-ethyl}-2-hydroxy-benzoic acid hydrochloride] | 8 nM | 10 nM | – | 24 nM | 621 nM | 534 nM | – | – | – | – | 9 nM | 0.06 µg/mL | >16 µg/mL | 4 µg/mL | 0.125 µg/mL |
